Results as given in paper PMC12856317, “A reversible feedback mechanism regulating mitochondrial heme synthesis” (The Journal of Biological Chemistry, 2025).
Residue numbers refer to the chain shown, from its start.

How the values were obtained:
Assay in all cases: Isothermal titration calorimetry, hemin-protein interaction
Type in all cases: binding
Conditions in all cases: ITC, 25 °C
[1] = target: T1, human ALAS2 ΔC (residues 54–547) (Homo sapiens, UniProt P22557)
T1 construct: a truncation without the C-terminal CXXC motif (ΔC, residues 54–547); His6-SUMO (N, cleaved yes); made in house; host or cells: Escherichia coli BL21-Codon Plus (DE3)-RIL
T1 sequence (P22557 54-547): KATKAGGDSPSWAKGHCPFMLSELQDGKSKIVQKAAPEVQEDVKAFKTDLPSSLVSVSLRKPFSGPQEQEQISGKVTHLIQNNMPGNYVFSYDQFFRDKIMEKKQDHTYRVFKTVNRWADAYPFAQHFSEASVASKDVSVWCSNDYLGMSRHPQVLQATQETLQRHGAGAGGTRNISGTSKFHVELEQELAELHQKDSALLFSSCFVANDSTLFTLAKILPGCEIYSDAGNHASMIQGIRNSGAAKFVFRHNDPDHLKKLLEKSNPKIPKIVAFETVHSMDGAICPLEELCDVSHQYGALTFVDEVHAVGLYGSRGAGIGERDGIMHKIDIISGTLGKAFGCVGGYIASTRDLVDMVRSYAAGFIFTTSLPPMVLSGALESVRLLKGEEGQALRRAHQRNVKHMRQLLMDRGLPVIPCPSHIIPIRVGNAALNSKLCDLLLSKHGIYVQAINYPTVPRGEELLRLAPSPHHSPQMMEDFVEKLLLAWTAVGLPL
Experimental: (§1) Binding curves of the hemin-protein interaction were determined using Nano-ITC instrument (TA instruments) at 25 °C. Hemin was dissolved in 1 M NaOH and autoclaved to prepare a stock solution of 746 μM, ε385nm = 58,440 M^−1 cm^−1. The stock solution was diluted to 1.5 μM in titration buffer containing 25 mM Hepes, pH 7, 150 mM KCl, and 0.5 mM TCEP. Protein samples were dialyzed into the titration buffer and diluted to a final concentration of 40 μM. Fixed volumes of protein were injected at 200-s intervals into the cell containing hemin. An A + B hetero-association model was used to determine the thermodynamic parameters for each variant. Data were integrated and analyzed using NITPIC and SEDPHAT and visualized using GUSSI ([71], [72], [73]).

[2] = target: T2, WT human ALAS2 (residues 54–587) (Homo sapiens, UniProt P22557)
T2 construct: His6-SUMO (N, cleaved yes); made in house; host or cells: Escherichia coli BL21-Codon Plus (DE3)-RIL
T2 sequence (P22557 54-587): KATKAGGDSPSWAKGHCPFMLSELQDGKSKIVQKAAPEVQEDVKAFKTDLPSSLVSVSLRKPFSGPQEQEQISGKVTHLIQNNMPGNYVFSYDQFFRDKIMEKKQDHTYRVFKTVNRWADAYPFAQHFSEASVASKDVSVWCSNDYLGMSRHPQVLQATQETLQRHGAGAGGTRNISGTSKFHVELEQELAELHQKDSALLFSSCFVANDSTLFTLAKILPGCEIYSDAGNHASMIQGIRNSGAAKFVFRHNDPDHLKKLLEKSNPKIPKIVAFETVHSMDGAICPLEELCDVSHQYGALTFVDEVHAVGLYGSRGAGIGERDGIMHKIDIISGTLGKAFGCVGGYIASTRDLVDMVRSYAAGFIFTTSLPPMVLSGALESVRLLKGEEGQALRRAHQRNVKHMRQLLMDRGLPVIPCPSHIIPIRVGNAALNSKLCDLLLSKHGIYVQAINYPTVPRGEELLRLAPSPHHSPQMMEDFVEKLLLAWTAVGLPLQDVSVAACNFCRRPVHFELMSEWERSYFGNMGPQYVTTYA
Experimental: as §1

[3] = target: T3, human ALAS2 Cys-mut (C70A/C555A/C558A) (Homo sapiens, UniProt P22557, C555A/C558A/C70A)
T3 construct: Site-directed mutagenesis was performed on the mature ALAS2 (residues 54–587) construct to generate truncations and cysteine mutants; His6-SUMO (N, cleaved yes); made in house; host or cells: Escherichia coli BL21-Codon Plus (DE3)-RIL
T3 sequence (P22557 54-587 C70A/C555A/C558A): T2 sequence (P22557 54-587) with C17A, C502A, C505A
Experimental: as §1

[4] = 95% confidence interval in brackets

ferric chloride heme [hemin]
ΔG [1]: -8.94 kcal/mol
ΔS [1]: −1.80 kcal/mol K
Kd [1, 4]: 279 nM
ΔH [1, 4]: −544 [−604, −499] kcal/mol
ΔG [2]: -9.05 kcal/mol
ΔS [2]: −1.25 kcal/mol K
Kd [2, 4]: 232 nM
ΔH [2, 4]: −382 [−440, −342] kcal/mol
Kd ([2]; 95% confidence interval in brackets, listed as heme): ~230 nM
ΔG [3]: -8.48 kcal/mol
ΔS [3]: −1.18 kcal/mol K
Kd [3, 4]: 610 nM
ΔH [3, 4]: −361 [−561, −280] kcal/mol
